Reference: patent publication US9138398B2, “Cationic alcohols and uses thereof” (Living Proof, Inc., priority 2009, dated 2015)

Test: Contact angle measurements of hair fiber (Cahn DCA-312 tensiometer)
Conditions: 1.5% Example 15 in conditioner C2, 20 cycles, versus placebo conditioner C1
Description: As described previously, improving upon benefits such as hydrophobicity, shine and tactile properties leads to the perception of healthier, more conditioned hair. Contact angle measurement has proven to be a viable method to measure the degree of hydrophobicity of hair. In principle, it measures the angle at the point of contact of a liquid with a surface. If the surface is highly hydrophobic (such as virgin, untreated hair), the angle of the water droplet at the interface would be greater than 90°. Likewise, a hydrophilic surface would cause the water droplet to fall flat, and the angle would be close to 0°.
Virgin black hair tresses (1.5 g each, from International Hair Importers) were bleached once with a homogeneous mixture of Clairol Pure White 20V hydrogen peroxide solution (45 ml) and Clairol bleach powder Ultra Concentrate BW2000 (6.75 g) for 10 min at 50° C. The tresses were shampooed with a 7.5% Sodium Lauryl Sulfate solution twice and air-dried for 24 h. […]
Contact angle measurements were performed with a Cahn DCA-312 tensiometer. […] The water surface tension was determined with a platinum DuNuoy ring (Cat 14-812-5) to be 70.6 mN/m. […]
The hair fiber diameter was measured with a precision micrometer (Mitutoyo Cat 293-761-30). […] The advancing and receding contact angles were measured for each sample, with runs performed in triplicate.

Which “Change of contact angle of bleached hair (hydrophobicity), in words” value does the source give for `C[N+](C)(CC[N+](C)(C)CC(O)COCC(F)(F)C(F)F)CC(O)COCC(F)(F)C(F)F` (stereo not shown) [Example 15] here?
The value was “significantly increased the contact angle”.
